{"source": "patent US20100076010A1", "about": "“ALPHA 1A-ADRENOCEPTOR ANTAGONISTS” (CONCERT Pharmaceuticals, Inc., priority 2007, published 2010)", "experiment": "Evaluation of metabolic stability in human liver microsomes", "format": "in vitro ADME", "settings": "for half-life at 1 μM: in vitro t1/2, 0.5 mg/mL human liver microsomes, 1 μM test compound, 2 mM NADPH, pH 7.4, 37° C., 0-30 minutes, average of two experiments, read-out: Half-life (t1/2) (min) ± SD; for Increase over Silodosin (%): increase of HLM half-life relative to silodosin", "method": "Evaluation of Metabolic Stability in Human Liver Microsomes. Human liver microsomes (“HLM”; 20 mg/mL) were obtained from Xenotech, LLC (Lenexa, Kans.). β-nicotinamide adenine dinucleotide phosphate, reduced form (NADPH), magnesium chloride (MgCl2), and dimethyl sulfoxide (DMSO) were purchased from Sigma-Aldrich.\nStock solutions of Compounds 108, 110, 111 and silodosin (7.5 mM) were separately prepared in DMSO. The 7.5 mM stock solutions were diluted to 50 μM in acetonitrile (ACN). The 20 mg/mL human liver microsomes were diluted to 0.625 mg/mL in 0.1 M potassium phosphate buffer, pH 7.4, containing 3 mM MgCl2. The diluted microsomes (375 μL) were added to wells of a 96-well deep-well polypropylene plate in triplicate. Ten μL of the 50 μM test compound solution was added to the microsomes and the mixture was pre-warmed for 10 minutes. Reactions were initiated by addition of 125 μL, of pre-warmed NADPH solution (8 mM NADPH in 0.1M potassium phosphate buffer, pH 7.4, containing 3 mM MgCl2). The final reaction volume was 0.5 mL and contains 0.5 mg/mL human liver microsomes, 1 μM test compound, and 2 mM NADPH in 0.1 M potassium phosphate buffer, pH 7.4, and 3 mM MgCl2. The reaction mixtures were incubated at 37° C., and 50 μL aliquots were removed at 0, 5, 10, 20, and 30 minutes and added to shallow-well 96-well plates which contain 50 μL of ice-cold ACN with internal standard to stop the reactions. The plates were stored at 4° C. for 20 minutes after which 100 μL of water was added to the wells of the plate before centrifugation to pellet precipitated proteins. Supernatants were transferred to another 96-well plate and analyzed for amounts of parent remaining by LC-MS/MS using an Applied Bio-systems API 4000 mass spectrometer.\nThe in vitro t1/2s for test compounds were calculated from the slopes of the linear regression of % parent remaining (ln) vs incubation time relationship. in vitro t1/2=0.693/k, where k=−[slope of linear regression of % parent remaining(ln) vs incubation time]. The experiment was performed twice. Data analysis was performed using Microsoft Excel Software."}
{"smiles": "[2H]C([2H])(O)C([2H])([2H])C([2H])([2H])N1CCc2cc(C[C@@H](C)NCCOc3ccccc3OCC(F)(F)F)cc(C(N)=O)c21", "note": "[Compound 111, (R)-1-(3-Hydroxy-(1,1,2,2,3,3-d6)-propyl)-5-(2-(2-(2-(2,2,2-trifluoroethoxy)-phenoxy)ethylamino)propyl)indoline-7-carboxamide]", "values": [{"measurement": "half-life at 1 μM", "result": "32 ± 0.1", "unit": "min"}, {"measurement": "Increase over Silodosin (%)", "result": 0, "unit": "%"}]}
{"smiles": "[2H]C([2H])(O)C([2H])([2H])C([2H])([2H])N1CCc2cc(C[C@@H](C)NC([2H])([2H])C([2H])([2H])Oc3ccccc3OC([2H])([2H])C(F)(F)F)cc(C(N)=O)c21", "note": "[Compound 108, (R)-1-(3-Hydroxy-(1,1,2,2,3,3-d6)-propyl)-5-(2-(2-(2-(2,2,2-trifluoro-1,1-d2-ethoxy)phenoxy)-(1,1,2,2-d4)-ethylamino)propyl)indoline-7-carboxamide]", "values": [{"measurement": "half-life at 1 μM", "result": "44 ± 1.2", "unit": "min"}, {"measurement": "Increase over Silodosin (%)", "result": 21, "unit": "%"}]}
{"smiles": "[2H]C([2H])(N[C@H](C)Cc1cc2c(c(C(N)=O)c1)N(CCCO)CC2)C([2H])([2H])Oc1ccccc1OC([2H])([2H])C(F)(F)F", "note": "[Compound 110, (R)-1-(3-hydroxypropyl)-5-(2-(2-(2-(2,2,2-d2-trifluoroethoxy)phenoxy)-d4-ethylamino)propyl)indoline-7-carboxamide]", "values": [{"measurement": "half-life at 1 μM", "result": "43 ± 10", "unit": "min"}, {"measurement": "Increase over Silodosin (%)", "result": 17, "unit": "%"}]}
{"smiles": "C[C@H](Cc1cc2c(c(C(N)=O)c1)N(CCCO)CC2)NCCOc1ccccc1OCC(F)(F)F", "note": "[Silodosin, (R)-1-(3-hydroxypropyl)-5-(2-(2-(2-(2,2,2-trifluoroethoxy)phenoxy)ethylamino)-propyl)indoline-7-carboxamide, reference compound]", "values": [{"measurement": "half-life at 1 μM", "result": "37 ± 0.1", "unit": "min"}]}
